tested on: Human RSV-A (“Long” strain); assay: RSV-A assay: inhibition of cytopathic effect in Hep-2 cells, ATPlite readout; type: cell-based, Human respiratory syncytial virus (HRSV); details: Hep-2 cells, MOI 0.1, 5-day incubation, ATPlite; read-out: Human RSV-A (“Long” strain) EC50
In short: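 Cytopathic-effect protection was read as ATP content (ATPlite luminescence) after a 5-day incubation. Setup: Hep-2 cells at 8,000 per well, RSV-A Long at MOI 0.1, 2-fold serial compound dilutions in duplicate. Cytotoxicity (CC50) was measured on an identical uninfected plate run in parallel.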

Structure (SMILES) | EC50 [nM]
O=C1Nc2ccccc2C(c2ccccc2)=N[C@@H]1Nc1nnc(-c2nc(C(F)(F)F)sc2N2CCO[C@H]3C[C@H]32)o1 (single isomer, unassigned) [Example 484] | < 400
O=C1Nc2ccccc2C(c2ccccc2)=N[C@@H]1Nc1nnc(-c2ncc(C(F)(F)F)cc2N[C@@H]2CC[C@@H]2O)o1 [Example 418] | > 800
COCCCc1cc(C(F)(F)F)cnc1-c1nnc(N[C@H]2N=C(c3ccccc3)c3ccccc3NC2=O)o1 [Example 413] | > 800
O=C1Nc2ccccc2C(c2ccccc2)=N[C@@H]1Nc1ncc(-c2ncc(C(F)(F)F)cc2N2CCOCC2)o1 [Example 442] | < 400
O=C1Nc2ccccc2C(c2ccccc2)=N[C@@H]1Nc1nnc(-c2cn(CC3CC3)nc2N2CCOCC2)o1 [Example 446] | < 400
O=C1Nc2ccccc2C(c2ccccc2)=N[C@@H]1Nc1nnc(-c2nc(C(F)(F)F)sc2N2CCO[C@@H]3C[C@@H]32)o1 (single isomer, unassigned) [Example 486] | > 800

same assay, conditions: human respiratory syncytial virus, HEp-2, 120 h, read-out: Human RSV-A (“Long” strain) EC50

Structure (SMILES) | EC50 [nM]
COCCn1nccc1-c1nnc(N[C@H]2N=C(c3ccccc3)c3ccccc3NC2=O)o1 [Example 310] | > 800
N#Cc1cc(N2CCOCC2)c(-c2nnc(N[C@H]3N=C(c4ccccc4)c4ccccc4NC3=O)o2)s1 [Example 323] | < 400
O=C1Nc2ccccc2C(c2ccccc2)=N[C@@H]1Nc1nnc(-c2cn(-c3cccnc3)nc2N2CCOCC2)o1 [Example 425] | < 400
O=C1Nc2ccccc2C(c2ccccc2)=N[C@@H]1Nc1nnc(-c2cnc(N3CC4CCC(C3)O4)nc2)o1 [Example 166] | > 800
O=C1Nc2ccccc2C(c2ccccc2)=N[C@@H]1Nc1nnc(-c2ccc(N3CCOCC3)cc2F)o1 [Example 126a] | < 400
O=C1Nc2ccccc2C(c2ccccc2)=N[C@@H]1Nc1nnc(-c2ncc(C(F)(F)F)cc2N[C@H]2CCOC2)o1 [Example 470] | > 800
O=C1Nc2ccccc2C(c2ccccc2)=NC1Nc1ncc(-c2ccccc2)cn1 (centres unmarked) [Example 371] | > 800
N#Cc1cccc(C2=NC(Nc3nnc(-c4ccc(F)cc4)o3)C(=O)Nc3ccccc32)c1 (centres unmarked) [Example 381] | > 800
O=C1Nc2ccccc2C(c2ccccc2)=N[C@@H]1Nc1nnc(-c2ncc(F)cc2N2CC3CCC(C2)O3)o1 [Example 299] | < 400
C[C@@H]1COCCN1c1cc(C#N)cnc1-c1nnc(N[C@H]2N=C(c3ccccc3)c3ccccc3NC2=O)o1 [Example 301] | < 400
CO[C@H]1CCN(c2ncccc2-c2nnc(NC3N=C(c4ccccc4)c4ccccc4NC3=O)o2)C1 (some centres unmarked) [Example 247] | > 800
N#Cc1ccc(-c2nnc(NC3N=C(c4ccccc4)c4ccccc4NC3=O)o2)s1 (centres unmarked) [Example 183] | < 400
O=C1Nc2ccccc2C(c2ccccc2)=N[C@@H]1Nc1nnc(-c2nnsc2N2CCOCC2)o1 [Example 292] | < 400
C[C@@H]1CN(c2cc(F)ccc2-c2nnc(N[C@H]3N=C(c4ccccc4)c4ccccc4NC3=O)o2)C[C@H](C)O1 [Example 284] | > 800
O=C1Nc2ccccc2C(c2ccccc2)=NC1Nc1nnc(-c2ccc(-n3cncn3)c(F)c2)o1 (centres unmarked) [Example 216] | 400 to 800
Cc1nc(-c2nnc(N[C@H]3N=C(c4ccccc4)c4ccccc4NC3=O)o2)c(C2CCOCC2)s1 [Example 346, (S)-3-((5-(2-methyl-5-(tetrahydro-2H-pyran-4-yl)thiazol-4-yl)-1,3,4-oxadiazol-2-yl)amino)-5-phenyl-1,3-dihydro-2H-benzo[e][1,4]diazepin-2-one] | < 400
O=C1Nc2ccccc2C(c2ccccc2)=NC1Nc1nnc(-c2ccccc2-c2ccncc2)o1 (centres unmarked) [Example 226] | > 800
COC(C)(C)CNc1cc(C(F)(F)F)cnc1-c1nnc(N[C@H]2N=C(c3ccccc3)c3ccccc3NC2=O)o1 [Example 416] | > 800
O=C1Nc2ccccc2C(c2ccccc2)=NC1Nc1nnc(-c2ccccc2C2=CCOCC2)o1 (centres unmarked) [Example 353, 3-((5-(2-(3,6-dihydro-2H-pyran-4-yl)phenyl)-1,3,4-oxadiazol-2-yl)amino)-5-phenyl-1,3-dihydro-2H-benzo[e][1,4]diazepin-2-one] | > 800
O=C1Nc2ccccc2C(c2ccccc2)=N[C@@H]1Nc1nnc(-c2cn(-c3ccccn3)nc2N2CCOCC2)o1 [Example 431] | < 400

Structure (SMILES) | EC50 [nM]
O=C1Nc2ccccc2C(c2ccccc2)=N[C@@H]1Nc1nnc(-c2ncc(C(F)(F)F)cc2C2CC2)o1 [Example 293] | > 800
COCCN(C)c1ccc(-c2nnc(NC3N=C(c4ccccc4)c4ccccc4NC3=O)o2)cc1 (centres unmarked) [Example 118] | > 800
COC1C2CN(c3cc(C(F)(F)F)cnc3-c3nnc(N[C@H]4N=C(c5ccccc5)c5ccccc5NC4=O)o3)CC21 (some centres unmarked) [Example 439] | > 800
CCc1nc(N2CCOCC2)c(-c2nnc(N[C@H]3N=C(c4ccccc4)c4ccccc4NC3=O)o2)cc1C#N [Example 176] | < 400
O=C1Nc2ccccc2C(c2ccccc2)=NC1Nc1nnc(-c2ccc(N3CCOCC3)cn2)o1 (centres unmarked) [Example 114] | > 800
O=C1Nc2c(F)cccc2C(c2ccccc2)=N[C@H]1Nc1nnc(-c2ccccc2N2CCOCC2)o1 [Example 355b] | > 800
COCCCc1sc(C(F)(F)F)nc1-c1nnc(N[C@H]2N=C(c3ccccc3)c3ccccc3NC2=O)o1 [Example 396] | > 800
CN1CCN(c2cc(C(F)(F)F)cnc2-c2nnc(N[C@H]3N=C(c4ccccc4)c4ccccc4NC3=O)o2)CC1 [Example 327] | 400 to 800
O=C1Nc2ccccc2C(c2ccccc2)=NC1Nc1nnc(-c2cc(C(F)(F)F)cnc2N2CCOCC2)o1 (centres unmarked) [Example 146] | > 800
O=C1Nc2ccccc2C(c2ccccc2)=N[C@@H]1Nc1nnc(-c2nc(C(F)(F)C(F)(F)F)sc2N2CCOCC2)o1 [Example 454] | < 400
O=C1Nc2ccccc2C(c2cccc(F)c2)=NC1Nc1nnc(-c2ccc(F)cc2)o1 (centres unmarked) [Example 380] | 400 to 800
Cc1cc(-n2cncn2)ccc1-c1nnc(NC2N=C(c3ccccc3)c3ccccc3NC2=O)o1 (centres unmarked) [Example 218] | > 800
COCCNc1cc(C(F)(F)F)cnc1-c1nnc(N[C@H]2N=C(c3ccccc3)c3ccccc3NC2=O)o1 [Example 305] | < 400
O=C1Nc2ccccc2C(c2ccccc2)=N[C@@H]1Nc1nnc(-c2ccc(=O)[nH]c2N2CCOCC2)o1 [Example 156, (S)-3-((5-(2-morpholino-6-oxo-1,6-dihydropyridin-3-yl)-1,3,4-oxadiazol-2-yl)amino)-5-phenyl-1,3-dihydro-2H-benzo[e][1,4]diazepin-2-one] | > 800
O=C1Nc2ccccc2C(c2ccccc2)=N[C@@H]1Nc1nnc(-c2nc(-c3ccc(F)cc3)sc2N2CCOCC2)o1 [Example 428] | < 400
O=C1Nc2ccccc2C(c2ccccc2)=NC1Nc1nnc(-c2ccccc2C2CCOCC2)o1 (centres unmarked) [Example 354] | > 800
O=C1Nc2ccccc2C(c2ccccc2)=NC1Nc1cc(N2CCOCC2)cnn1 (centres unmarked) [Example 463] | > 800
O=C1Nc2ccccc2C(c2ccccc2)=N[C@@H]1Nc1nnc(-c2ccnn2-c2ccccc2)o1 [Example 349] | > 800
O=C1Nc2ccccc2C(c2ccccc2)=N[C@@H]1Nc1nnc(-c2ncc(C(F)(F)F)cc2N[C@@H]2CCC[C@@H]2O)o1 [Example 423] | 400 to 800
O=C1Nc2ccccc2C(c2ccccc2)=NC1Nc1nnc(-c2cccnc2N2C3CCC2COC3)o1 (centres unmarked) [Example 265] | > 800

Structure (SMILES) | EC50 [nM]
COC[C@@H](C)Nc1sc(C(F)(F)F)nc1-c1nnc(N[C@H]2N=C(c3ccccc3)c3ccccc3NC2=O)o1 [Example 451] | 400 to 800
O=C1Nc2ccccc2C(c2ccccc2)=NC1Nc1nnc(C2CC3(CCNCC3)C2)o1 (centres unmarked) [Example 222] | > 800
CN1CCC(N2CCC[C@H]2c2nnc(NC3N=C(c4ccccc4)c4ccccc4NC3=O)o2)CC1 (some centres unmarked) [Example 228] | > 800
O=C1Nc2ccccc2C(c2ccccc2)=NC1Nc1cnc(-c2ccc(F)cc2)cn1 (centres unmarked) [Example 373] | > 800
O=C1Nc2ccccc2C(c2ccccc2)=NC1Nc1nnc(C2CCNC2)o1 (centres unmarked) [Example 221] | > 800
O=C1Nc2ccccc2C(c2ccccc2)=NC1Nc1nnc(-c2ccc(N3CCOCC3)cc2)o1 (centres unmarked) [Example 124a] | < 400
Cc1ccc(-c2nnc(N[C@H]3N=C(c4ccccc4)c4ccccc4NC3=O)o2)c(N2CC3CCC(C2)O3)n1 [Example 279] | < 400
COc1cnc(-c2nnc(NC3N=C(c4ccccc4)c4ccccc4NC3=O)o2)c(F)c1 (centres unmarked) [Example 185] | > 800
C[C@@H]1COCCN1c1cc(C(F)(F)F)cnc1-c1nnc(N[C@H]2N=C(c3ccccc3)c3ccccc3NC2=O)o1 [Example 294] | < 400
CCn1cc(-c2nnc(N[C@H]3N=C(c4ccccc4)c4ccccc4NC3=O)o2)c(N2CCOCC2)n1 [Example 401] | < 400
Cc1ccc(-c2nnc(N[C@H]3N=C(c4ccccc4)c4ccccc4NC3=O)o2)c(N2C3CCC2COC3)n1 [Example 280] | < 400
O=C1Nc2ccccc2C(c2ccccc2)=NC1Nc1nnc(-c2ccc(N3CCOCC3)cc2C(F)(F)F)o1 (centres unmarked) [Example 147] | > 800
O=C1Nc2ccccc2C(c2ccccc2)=NC1Nc1nnc(-c2ccc(OC3CCOCC3)cc2)o1 (centres unmarked) [Example 220] | > 800
N#Cc1cnc(-c2nnc(NC3N=C(c4ccccc4)c4ccccc4NC3=O)o2)c(N2CCOCC2)c1 (centres unmarked) [Example 140] | < 400
O=C1Nc2ccccc2C(c2ccccc2)=NC1Nc1nnc(-c2cccnc2N2CCC(F)CC2)o1 (centres unmarked) [Example 256] | > 800
COCCOc1ccccc1-c1nnc(NC2N=C(c3ccccc3)c3ccccc3NC2=O)o1 (centres unmarked) [Example 229] | > 800
Cn1cc(-c2nc(-c3nnc(N[C@H]4N=C(c5ccccc5)c5ccccc5NC4=O)o3)c(N3CCOCC3)s2)cn1 [Example 399] | < 400
N#Cc1cnc(N2CCOCC2)c(-c2nnc(N[C@H]3N=C(c4ccccc4)c4ccccc4NC3=O)o2)c1 [Example 174] | < 400
O=C1Nc2ccccc2C(c2ccccc2)=N[C@H]1Nc1nnc(-c2ccc(N3CCOCC3)cc2F)o1 [Example 126b] | > 800
